# Tests used:
# [1] = biological target: T1, FGFR1 (Homo sapiens, UniProt P11362); assay: Isolated enzyme FRET-based Z-Lyte kinase inhibition assay; format: biochemical; conditions: means from 3 independent experiments; read-out: Isolate Enzyme Inhibition IC50, FGFR1
# T1 construct: purchased Invitrogen
# Method: (§1) FGFR1-4 and the Z-Lyte Kinase Assay Kit were purchased from Invitrogen. The concentration gradients from 5.1×10^−11 to 1.0×10^−6 mol/L were used for all the test compounds. The experiments were performed according to the instructions of the manufacturer.
# (§2) FGFR1-4 isolated enzyme activity was determined using the FRET-based Z-Lyte kinase inhibition assay. The data are the means from 3 independent experiments.
# [2] = biological target: T2, FGFR2 (Homo sapiens, UniProt P21802); assay: as above; format: biochemical; conditions: means from 3 independent experiments; read-out: Isolate Enzyme Inhibition IC50, FGFR2
# T2 construct: purchased Invitrogen
# Method: as §1, §2
# [3] = biological target: T3, FGFR3 (Homo sapiens, UniProt P22607); assay: as above; format: biochemical; conditions: means from 3 independent experiments; read-out: Isolate Enzyme Inhibition IC50, FGFR3
# T3 construct: purchased Invitrogen
# Method: as §1, §2
# [4] = biological target: T4, FGFR4 (Homo sapiens, UniProt P22455); assay: as above; format: biochemical; conditions: means from 3 independent experiments; read-out: Isolate Enzyme Inhibition IC50, FGFR4
# T4 construct: purchased Invitrogen
# Method: as §1, §2
# [5] = test system: FGFR1-amplified H520 non-small cell lung cancer cells; assay: Cell proliferation assay (SRB); format: cell-based; conditions: Homo sapiens, NCI-H520, 168 h, read-out: Cellular Anti-proliferative IC50, H520
# [6] = test system: FGFR2-amplified SUM52 breast cancer cells; assay: Cell proliferation assay (SRB); format: cell-based; conditions: SUM52, 120 h, read-out: Cellular Anti-proliferative IC50, SUM52, 5 days drug exposure
# [7] = test system: FGFR4-amplified Hep3B hepatocellular carcinoma cells; assay: Cell proliferation assay (SRB); format: cell-based; conditions: Homo sapiens, Hep3B; read-out: Cellular Anti-proliferative IC50, Hep3B
# [8] = test system: FGFR1 in H520 cells (phospho-ERK1/2); assay: Drug washout Western blot assay, H520 cells; format: cell-based; conditions: for exposure concentration for irreversible inhibition (fully covalently bind the target) in cells: H520 (FGFR1), 30 minute exposure; for inhibition of phosphorylation of ERK1/2, no washout / phospho-ERK1/2 after extensive drug washout: 30 min; for inhibition of phosphorylation of ERK1/2, no washout: then FGF-stimulation; for phospho-ERK1/2 after extensive drug washout: washout prior to FGF-stimulation
# [9] = test system: FGFR2 in SUM52 cells (phospho-ERK1/2); assay: Drug washout Western blot assay, SUM52 cells; format: cell-based; conditions: for exposure concentration for irreversible inhibition (fully covalently bind the target) in cells: SUM52 (FGFR2), 30 minute exposure; for inhibition of phosphorylation of ERK1/2, no washout / phospho-ERK1/2 after extensive drug washout: SUM52, 30 min; for inhibition of phosphorylation of ERK1/2, no washout: then FGF-stimulation; for phospho-ERK1/2 after extensive drug washout: washout prior to FGF-stimulation
# Method: Cells were seeded on the day prior to drug treatment (1 million cells/well; 6-well plate).
# Drug stocks were prepared in media using 1 mM or 10 mM DMSO stock solutions. Media was aspirated from each well and replaced with 2 ml of drug-free media for control wells or 2 ml of diluted drug for treated wells. Cells were exposed to drug for 30 min. Recombinant FGF (50 ng/well) was added to each well 15 minutes prior to the end of the drug exposure and protein was extracted as below.
# Cells were exposed to drug for 30 min as above. Media was aspirated and each well was washed with 5 ml drug-free media. The wash media was aspirated and replaced with 2 ml drug-free media and cells incubated for a further 30 minutes, after which the wash protocol was repeated. Cells were incubated for a further 90 minutes in drug-free media. Recombinant FGF (50 ng/well) was added to each well 15 minutes prior to the end of the drug-free incubation and protein was extracted as below.
# Cell lysates were prepared in 250 μL of RIPA lysis buffer containing protease inhibitor (1:100). After incubation on ice (30 min) and centrifugation (13,000 rpm, 5 min, 4° C.) the supernatants containing the proteins were stored (−20° C.) until required. Bicinchoninic acid (BCA) assay was used to determine the protein concentration of individual cell lysate samples.
# [10] = test system: FGFR3 in SW780 cells (phospho-ERK1/2); assay: Drug washout Western blot assay, SW780 cells; format: cell-based; conditions: for exposure concentration for irreversible inhibition (fully covalently bind the target) in cells: SW780 (FGFR3), 30 minute exposure; for inhibition of phosphorylation of ERK1/2, no washout / phospho-ERK1/2 after extensive drug washout: 30 min; for inhibition of phosphorylation of ERK1/2, no washout: then FGF-stimulation; for phospho-ERK1/2 after extensive drug washout: washout prior to FGF-stimulation
# [11] = biological target: T5, recombinant FGFR1 (C584S) kinase domain (Homo sapiens, UniProt P11362, C584S); assay: FGFR1 (C584S) covalent binding protein mass spectrometry assay; conditions: protein:inhibitor 1:10, 37° C.
# T5 construct: made in house; host or cells: pETDuet vector, IPTG induction in Terrific Broth (bacterial)
# Method: The previously cloned C488A/C584S FGFR1 construct was modified by site-directed mutagenesis to provide a gene encoding the C584S FGFR1 kinase domain with the cysteine at amino acid C488 reinstated. Expression and purification of this protein followed the protocol described above but with the addition of 10% glycerol to all buffers and a change of buffer pH to a value of 8.5. Protein for mass spectrometry was concentrated to ˜40 mg/ml and was mixed 1:1 (v/v) with glycerol, and then frozen at −20° C. or flash cooled in liquid nitrogen and stored at −80° C. until needed.
# Protein samples were buffer exchanged to remove glycerol (the final buffer comprised 20 mM Tris-HCl pH 8.5, 10% (v/v) glycerol, 20 mM NaCl, 5 mM EDTA, 2 mM TCEP) and were mixed with each inhibitor at 1:10 molar ratio (protein:inhibitor). Final protein concentration was 20 μM. […] Samples were mixed with 90 μL of 0.1% formic acid to quench the reaction followed by flash cooling in liquid nitrogen. Samples were stored at −80° C. until needed. All experiments were carried out in triplicate.
# Samples were subjected to liquid chromatography mass spectrometry (LC-MS) to show mass changes attributable to irreversible inhibition. Mass spectrometry experiments were performed at the University of Auckland Mass Spectrometry Center using an electropspray QSTAR® XL ESI quadrupole Time-of-Flight (QToF) MS system (Applied Biosystems) operated in positive ionization mode. The instrument was calibrated using Renin Substrate Standard (SCIEX), over the m/z range 100-2000. Protein/inhibitor samples were thawed and 2 μL volumes injected into a liquid chromatography (LC) BIOshell™ A400 Protein C4 HPLC column (10 cm×2.1 mm, 3.4 μm) attached to the mass spectrometer. […] Following elution, samples were directly injected into the mass spectrometer for separation and mass analysis. Mass spectrometry data were processed and analysed using the PeakView™ 2.1 software and the Bio Tool Kit plug-in (SCIEX) and covered an m/z range of 330-1600. Deconvolution calculations allowed visualisation of intact mass protein peaks and allowed peak area measurement to assess the percentage of protein covalently modified by each inhibitor at each time point. Data was plotted using GraphPad Prism 7 (GraphPad).
# [12] = test system: FGFR3-amplified SW780 bladder cancer cells; assay: Cell proliferation assay (SRB); conditions: Homo sapiens, SW780, 120 h, read-out: Cellular Anti-proliferative IC50, SW780
# T5 sequence (P11362 with tags, fused parts or gaps C584S): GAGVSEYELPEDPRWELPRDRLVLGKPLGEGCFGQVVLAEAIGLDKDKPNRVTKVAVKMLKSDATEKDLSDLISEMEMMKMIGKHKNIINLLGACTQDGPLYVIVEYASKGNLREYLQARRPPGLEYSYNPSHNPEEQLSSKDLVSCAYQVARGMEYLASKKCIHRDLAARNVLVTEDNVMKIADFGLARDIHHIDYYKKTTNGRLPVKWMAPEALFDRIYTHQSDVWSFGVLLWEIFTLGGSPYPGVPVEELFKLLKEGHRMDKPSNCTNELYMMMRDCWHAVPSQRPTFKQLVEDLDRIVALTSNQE
# T4 sequence (P22455 22-802): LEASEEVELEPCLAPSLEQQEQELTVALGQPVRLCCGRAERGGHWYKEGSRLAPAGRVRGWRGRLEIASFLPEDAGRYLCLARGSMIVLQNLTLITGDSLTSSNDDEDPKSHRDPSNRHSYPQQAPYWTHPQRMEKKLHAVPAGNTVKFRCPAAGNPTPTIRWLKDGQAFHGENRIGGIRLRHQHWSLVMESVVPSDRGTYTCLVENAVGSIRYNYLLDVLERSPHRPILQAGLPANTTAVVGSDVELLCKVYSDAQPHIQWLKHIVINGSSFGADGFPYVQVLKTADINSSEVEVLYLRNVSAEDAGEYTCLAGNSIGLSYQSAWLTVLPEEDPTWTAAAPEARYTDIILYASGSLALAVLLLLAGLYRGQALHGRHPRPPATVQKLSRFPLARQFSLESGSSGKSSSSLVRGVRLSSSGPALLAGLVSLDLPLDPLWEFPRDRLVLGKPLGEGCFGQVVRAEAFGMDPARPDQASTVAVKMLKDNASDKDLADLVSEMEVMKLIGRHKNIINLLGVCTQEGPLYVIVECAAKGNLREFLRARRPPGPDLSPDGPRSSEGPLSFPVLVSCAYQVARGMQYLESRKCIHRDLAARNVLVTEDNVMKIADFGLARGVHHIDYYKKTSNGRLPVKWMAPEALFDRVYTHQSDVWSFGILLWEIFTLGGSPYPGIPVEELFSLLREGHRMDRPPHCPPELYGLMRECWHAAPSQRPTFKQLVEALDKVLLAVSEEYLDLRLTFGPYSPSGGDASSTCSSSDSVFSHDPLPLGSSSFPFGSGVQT
# T1 sequence (P11362 22-822): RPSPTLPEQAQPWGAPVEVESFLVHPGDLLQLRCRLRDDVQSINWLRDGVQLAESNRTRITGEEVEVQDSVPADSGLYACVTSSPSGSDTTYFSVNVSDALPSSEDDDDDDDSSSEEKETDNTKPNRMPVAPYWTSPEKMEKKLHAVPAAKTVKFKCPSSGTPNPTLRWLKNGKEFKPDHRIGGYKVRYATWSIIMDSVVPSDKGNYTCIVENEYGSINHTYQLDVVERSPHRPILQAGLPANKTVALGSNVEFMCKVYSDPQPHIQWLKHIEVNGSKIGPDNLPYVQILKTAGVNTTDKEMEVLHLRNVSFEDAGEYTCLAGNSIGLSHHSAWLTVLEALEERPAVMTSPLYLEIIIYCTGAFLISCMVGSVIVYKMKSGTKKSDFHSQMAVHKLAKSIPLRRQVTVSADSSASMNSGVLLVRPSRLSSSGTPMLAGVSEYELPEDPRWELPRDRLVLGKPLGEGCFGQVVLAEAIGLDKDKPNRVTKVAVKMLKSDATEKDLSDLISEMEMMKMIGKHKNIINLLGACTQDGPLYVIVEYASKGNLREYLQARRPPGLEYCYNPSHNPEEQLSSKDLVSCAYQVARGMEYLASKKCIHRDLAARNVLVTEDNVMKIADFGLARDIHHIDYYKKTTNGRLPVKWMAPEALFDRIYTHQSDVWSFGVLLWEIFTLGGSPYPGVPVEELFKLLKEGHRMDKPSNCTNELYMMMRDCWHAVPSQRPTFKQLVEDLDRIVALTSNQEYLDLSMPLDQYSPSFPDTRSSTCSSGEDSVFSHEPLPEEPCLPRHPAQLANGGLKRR
# T3 sequence (P22607 23-806): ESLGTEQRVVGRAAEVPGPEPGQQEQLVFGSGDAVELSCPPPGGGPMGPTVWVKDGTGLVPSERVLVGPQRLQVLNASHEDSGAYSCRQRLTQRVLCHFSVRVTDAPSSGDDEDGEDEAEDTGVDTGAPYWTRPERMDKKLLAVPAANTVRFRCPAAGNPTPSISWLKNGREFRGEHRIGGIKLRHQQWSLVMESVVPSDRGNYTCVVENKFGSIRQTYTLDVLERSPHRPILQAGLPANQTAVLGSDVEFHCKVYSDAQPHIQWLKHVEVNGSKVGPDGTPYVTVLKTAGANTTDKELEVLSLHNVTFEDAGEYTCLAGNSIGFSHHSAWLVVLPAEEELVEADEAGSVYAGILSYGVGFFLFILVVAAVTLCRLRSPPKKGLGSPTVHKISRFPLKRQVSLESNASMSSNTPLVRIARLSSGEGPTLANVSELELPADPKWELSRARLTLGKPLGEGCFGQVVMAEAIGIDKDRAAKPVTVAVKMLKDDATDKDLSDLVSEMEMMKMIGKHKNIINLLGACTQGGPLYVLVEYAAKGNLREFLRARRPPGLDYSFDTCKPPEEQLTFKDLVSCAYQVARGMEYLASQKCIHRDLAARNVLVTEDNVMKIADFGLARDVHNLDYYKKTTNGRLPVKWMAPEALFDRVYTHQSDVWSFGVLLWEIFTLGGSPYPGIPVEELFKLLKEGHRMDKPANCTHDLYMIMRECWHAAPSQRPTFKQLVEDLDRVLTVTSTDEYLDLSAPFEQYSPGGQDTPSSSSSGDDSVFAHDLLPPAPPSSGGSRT
# T2 sequence (P21802 22-821): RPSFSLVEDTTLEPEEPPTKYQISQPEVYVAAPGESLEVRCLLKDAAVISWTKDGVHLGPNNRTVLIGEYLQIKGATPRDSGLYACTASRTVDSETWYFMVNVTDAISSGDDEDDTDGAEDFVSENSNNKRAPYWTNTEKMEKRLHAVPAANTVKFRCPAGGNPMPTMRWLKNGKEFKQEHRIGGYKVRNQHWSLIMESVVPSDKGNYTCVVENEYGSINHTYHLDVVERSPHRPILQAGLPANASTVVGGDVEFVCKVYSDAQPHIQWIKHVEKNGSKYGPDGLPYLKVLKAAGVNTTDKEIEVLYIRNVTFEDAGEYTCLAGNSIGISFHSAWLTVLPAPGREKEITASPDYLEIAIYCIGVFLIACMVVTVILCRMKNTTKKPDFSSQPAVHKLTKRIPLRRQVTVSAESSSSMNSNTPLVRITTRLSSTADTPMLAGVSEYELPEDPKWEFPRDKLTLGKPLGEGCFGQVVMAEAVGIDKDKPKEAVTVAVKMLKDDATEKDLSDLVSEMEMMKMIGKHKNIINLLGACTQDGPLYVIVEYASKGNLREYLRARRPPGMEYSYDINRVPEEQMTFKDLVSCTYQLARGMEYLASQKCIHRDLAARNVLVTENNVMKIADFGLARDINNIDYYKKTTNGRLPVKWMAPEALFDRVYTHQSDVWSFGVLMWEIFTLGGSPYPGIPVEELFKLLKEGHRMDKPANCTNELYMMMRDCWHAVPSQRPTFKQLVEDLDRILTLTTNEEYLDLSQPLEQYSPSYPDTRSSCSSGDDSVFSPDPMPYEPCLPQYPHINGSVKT
SMILES,IC50 [1] [nM],IC50 [2] [nM],IC50 [3] [nM],IC50 [4] [nM],IC50 [5] [nM],IC50 [6] [nM],IC50 [7] [nM],exposure concentration for irreversible inhibition (fully covalently bind the target) in cells [8] [nM],"inhibition of phosphorylation of ERK1/2, no washout ([8]; H520, 100 nM)","phospho-ERK1/2 after extensive drug washout ([8]; H520, 100 nM)","phospho-ERK1/2 after extensive drug washout ([8]; H520, 1000 nM)",exposure concentration for irreversible inhibition (fully covalently bind the target) in cells [9] [nM],"inhibition of phosphorylation of ERK1/2, no washout ([9]; 100 nM)",phospho-ERK1/2 after extensive drug washout ([9]; 100 nM),phospho-ERK1/2 after extensive drug washout ([9]; 1000 nM),exposure concentration for irreversible inhibition (fully covalently bind the target) in cells [10] [nM],"inhibition of phosphorylation of ERK1/2, no washout ([10]; SW780, 100 nM)","phospho-ERK1/2 after extensive drug washout ([10]; SW780, 100 nM)","phospho-ERK1/2 after extensive drug washout ([10]; SW780, 1000 nM)",% Conversion to FGFR1 (C584S) covalent adduct after 120 minutes incubation [11] [%],also measured
"COc1cc(OC)c(Cl)c(N2Cc3cnc(NC(C)C)nc3N([C@H]3CCN(C(=O)/C=C/CN(C)C)C3)C2=O)c1Cl [Compound 104, (S,E)-3-(2,6-dichloro-3,5-dimethoxyphenyl)-1-(1-(4-(dimethylamino)but-2-enoyl)pyrrolidin-3-yl)-7-(isopropylamino)-3,4-dihydropyrimido[4,5-d]pyrimidin-2(1H)-one]",1.1,23,35,906,17,1.4,12,1000,complete inhibition,restoration,essential full inhibition,1000,complete inhibition,restoration,essential full inhibition,1000,complete inhibition,restoration,essential full inhibition,8,"reversible or irreversible inhibition of FGFR1 in cells ([8]; H520, 2 hours exposure, 100, 300 and 600 nM, with and without washout): potent, irreversible inhibition; concentration required to suppress FGFR1 signalling through phospho-ERK1/2 ([8]; H520, 2 hours exposure, tested at 100, 300 and 600 nM): 300 nM; reversible or irreversible inhibition of FGFR3 in cells ([10]; SW780, 120 minutes exposure, 100 nM, with and without washout): reversible; IC50 [12]: 11 nM"
"COc1cc(OC)c(Cl)c(N2Cc3cnc(NC4CCCCC4)nc3N([C@H]3CCN(C(=O)/C=C/CN(C)C)C3)C2=O)c1Cl [Compound 105, (S,E)-7-(cyclohexylamino)-3-(2,6-dichloro-3,5-dimethoxyphenyl)-1-(1-(4-(dimethylamino)but-2-enoyl)pyrrolidin-3-yl)-3,4-dihydropyrimido[4,5-d]pyrimidin-2(1H)-one]",1.2,16,33,729,68,2.1,80,1000,complete inhibition,partially inhibited,essential full inhibition,1000,complete inhibition,remained inhibited,essential full inhibition,1000,complete inhibition,fully restored,essential full inhibition,8,IC50 [12]: 4 nM
"COc1cc(OC)c(Cl)c(N2Cc3cnc(Nc4ccccc4)nc3N(C3CCN(C(=O)/C=C/CN(C)C)CC3)C2=O)c1 [Compound 128, (E)-3-(2-chloro-3,5-dimethoxyphenyl)-1-(1-(4-(dimethylamino)but-2-enoyl)piperidin-4-yl)-7-(phenylamino)-3,4-dihydropyrimido[4,5-d]pyrimidin-2(1H)-one]",,,,,,,,,,,,,,,,,,,,48,
"COc1cc(OC)c(Cl)c(N2Cc3cnc(Nc4ccc(N5CCOCC5)cc4)nc3N(C3CCN(C(=O)/C=C/CN(C)C)CC3)C2=O)c1Cl [Compound 129, (E)-3-(2,6-dichloro-3,5-dimethoxyphenyl)-1-(1-(4-(dimethylamino)but-2-enoyl)piperidin-4-yl)-7-((4-morpholinophenyl)amino)-3,4-dihydropyrimido[4,5-d]pyrimidin-2(1H)-one]",,,,,,,,,,,,,,,,,,,,46,
"COc1cc(OC)c(Cl)c(N2Cc3cnc(Nc4ccc(N5CCOCC5)cc4)nc3N(C3CCN(C(=O)/C=C/CN(C)C)CC3)C2=O)c1 [Compound 130, (E)-3-(2-chloro-3,5-dimethoxyphenyl)-1-(1-(4-(dimethylamino)but-2-enoyl)piperidin-4-yl)-7-((4-morpholinophenyl)amino)-3,4-dihydropyrimido[4,5-d]pyrimidin-2(1H)-one]",,,,,,,,,,,,,,,,,,,,46,
"COc1cc(OC)cc(N2Cc3cnc(Nc4ccc(N5CCOCC5)cc4)nc3N(C3CCN(C(=O)/C=C/CN(C)C)CC3)C2=O)c1 [Compound 131, (E)-3-(3,5-dimethoxyphenyl)-1-(1-(4-(dimethylamino)but-2-enoyl)piperidin-4-yl)-7-((4-morpholinophenyl)amino)-3,4-dihydropyrimido[4,5-d]pyrimidin-2(1H)-one]",,,,,,,,,,,,,,,,,,,,39,

# From patent US11192890B2, “FGFR kinase inhibitors and pharmaceutical uses” (AUCKLAND UNISERVICES LIMITED, priority 2017, dated 2021)
